Source: US20180325909A1, “COMBINATION TREATMENT OF SPECIFIC FORMS OF EPILEPSY” (ZOGENIX INTERNATIONAL LIMITED, priority 2015, published 2018)
“Also recorded” adds a separate entry of the source. Where two headings read alike, the source gives them in different places.

Tests used:
WT scn1Lab+/+ larvae = assay: Locomotor activity of age-matched wildtype zebrafish larvae; assay type: in vivo, Danio rerio; settings: 'with exception of' means the compound did decrease wildtype activity
Description: (§1) Zebrafish embryos (Danio rerio) heterozygous for the scn1Lab mutation (scn1Lab+/−) were backcrossed with Tupfel longfin wildtype (WT scn1Lab+/+). Adult zebrafish were housed at 28.0° C., on a 14/10 hour light/dark cycle under standard aquaculture conditions. Fertilized eggs were collected via natural spawning. Anaesthetized fish (tricaine 0.02%) were fin-clipped and genotyped by PCR. After genotyping, samples were purified (MinElute PCR Purification Kit) and sequenced by LGC Genomics. Age-matched Tupfel longfin wildtype larvae were used as control group (WT scn1Lab+/+).
(§2) To evaluate the locomotor activity of homozygous scn1Lab−/− mutants and control WT scn1Lab+/+, zebrafish larvae were placed in a 96-well plate in 100 μL of embryo medium from 4 to 8 dpf. Each day the larvae were tracked in an automated tracking device (ZebraBox™ apparatus; Viewpoint, Lyon, France) for 10 min after 30 min habituation (100-second integration interval). All recordings were performed at the same time during daytime period. The total distance in large movements was recorded and quantified using ZebraLab™ software (Viewpoint, Lyon, France). Data were pooled together from at least three independent experiments with at least 24 larvae per condition.
Scn1Lab−/− mutants and WT scn1Lab+/+ larvae were arrayed in the same plate and treated at 6 days post fertilization (dpf) with fenfluramine (25 μM), functional analogs (at their MTC) or VHC in individual wells of a 96-well plate. After incubation at 28° C. on a 14/10 hour light/dark cycle and 30-min chamber habituation 6 and 7 dpf larvae were tracked for locomotor activity for 10 min (100-second integration interval) under dark conditions. An incubation time of 1.5 hours is further referred as short treatment (6 dpf). Furthermore these larvae were analyzed after more than 22 hours incubation (7 dpf), i.e. long treatment. The total locomotor activity was quantified using the parameter lardist and plotted in cm. […]

[1] = tested on: homozygous scn1Lab−/− mutants; assay type: in vivo, Danio rerio; settings: for locomotor-reducing activity of functional analogs: at MTC, in most cases observed after short and long treatment; for activity in the Zebrafish model of epilepsy: following both acute and chronic application
Description: as §1, §2
(§3) Scn1Lab−/− mutants and WT scn1Lab+/+ larvae were arrayed in the same plate and treated at 6 days post fertilization (dpf) with fenfluramine (25 μM), functional analogs (at their MTC) or VHC in individual wells of a 96-well plate. After incubation at 28° C. on a 14/10 hour light/dark cycle and 30-min chamber habituation 6 and 7 dpf larvae were tracked for locomotor activity for 10 min (100-second integration interval) under dark conditions. An incubation time of 1.5 hours is further referred as short treatment (6 dpf). Furthermore these larvae were analyzed after more than 22 hours incubation (7 dpf), i.e. long treatment. The total locomotor activity was quantified using the parameter lardist and plotted in cm. Data were pooled together from two (5-HT1B-, 5-HT1F-, 5-HT3-, 5-HT4-, 5-HT5A-, 5-HT6-agonist and all antagonists except 5-HT1B- and 5-HT7-antagonists) or three (fenfluramine, 5-HT1A-, 5-HT1D-, 5-HT1E-, 5-HT2A-, 5-HT2B-, and 5-HT2C-agonist) independent experiments with at least 9 larvae per treatment condition.

[2] = tested on: homozygous scn1Lab−/− mutants; assay type: in vivo, Danio rerio; settings: for reduction of epileptiform activity (in words, compared with fenfluramine): long treatment at MTC (5-HT2B-agonist 3.125 μM), at least frequency and mean cumulative duration
Description: Epileptiform activity was measured by open-field recordings in the zebrafish larval forebrain at 7 dpf. Homozygous scn1Lab−/− mutants and control WT scn1Lab+/+ were embedded in 2% low-melting-point agarose (Invitrogen) to position a glass electrode into the forebrain. […] Single recordings were performed for 10 min. […] Spontaneous epileptiform events were taken into account when the amplitude exceeded three times the background noise and lasted longer than 50 milliseconds (ms).
Epileptiform activity was measured by open-field recordings in the zebrafish larval forebrain at 7 dpf, as described above. […] Recordings of 7 dpf larvae, from at least 8 scn1Lab−/− mutant larvae were taken per experimental condition. […] Electrographic recordings were quantified for the different treatment conditions.

scn1Lab−/− larvae = assay: Fenfluramine combined with 5-HT subtype antagonists, locomotor activity of scn1Lab-/- larvae; assay type: in vivo, Danio rerio; settings: antagonist plus fenfluramine
Description: as §3
No highly specific 5-HT1E-antagonist is currently available so it was impossible to explore this 5-HTsubtype receptor in the current assay (Leung, 2009).

Dravet syndrome patients [3] = settings: Chiron et al. 2011; cited from earlier work
Dravet syndrome patients [4] = settings: long term treatment with fenfluramine 0.12-0.90 mg/kg/day; Ceulemans et al. 2012; cited from earlier work
5-HT2C receptor = target: T1, 5-HT2C receptor (Homo sapiens, UniProt P28335); settings: cited from earlier work
T1 sequence (P28335 33-458): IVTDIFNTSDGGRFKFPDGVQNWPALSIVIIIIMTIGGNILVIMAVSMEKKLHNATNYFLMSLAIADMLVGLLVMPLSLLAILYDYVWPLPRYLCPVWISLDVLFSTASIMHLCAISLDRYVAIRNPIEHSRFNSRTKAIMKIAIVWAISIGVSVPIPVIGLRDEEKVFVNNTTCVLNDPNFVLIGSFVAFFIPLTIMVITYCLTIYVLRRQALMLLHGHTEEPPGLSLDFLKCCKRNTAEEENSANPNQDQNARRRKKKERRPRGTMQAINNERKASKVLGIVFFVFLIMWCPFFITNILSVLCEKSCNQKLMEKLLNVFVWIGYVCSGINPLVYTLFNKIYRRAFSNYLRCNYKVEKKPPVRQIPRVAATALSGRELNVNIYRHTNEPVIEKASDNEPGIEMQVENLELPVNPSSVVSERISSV

[5] = long treatment, fenfluramine 25 μM, 7 dpf

Compound: COc1ccc(CNC(=O)/C=C/c2ccc3[nH]cc(CCN(C)C)c3c2)cc1 [5-HT1D-agonist, 3-[3-(2-Dimethylaminoethyl)-1H-indol-5-yl]-N-(4-methoxybenzyl)acrylamide]
- locomotor activity in wildtype larvae (WT scn1Lab+/+ larvae): did not decrease the locomotor activity
- locomotor-reducing activity of functional analogs [1]: locomotor-reducing activity
- activity in the Zebrafish model of epilepsy [1]: high levels of activity
- reduction of epileptiform activity (in words, compared with fenfluramine) ([2]; 7 dpf): comparable effects

Compound: CN1CCC(c2c[nH]c3ccc(O)cc23)CC1 [5-HT1E-agonist, 1H-Indol-5-ol, 3-(1-methyl-4-piperidinyl)-]
- locomotor activity in wildtype larvae (WT scn1Lab+/+ larvae): did not decrease the locomotor activity
- locomotor-reducing activity of functional analogs [1]: locomotor-reducing activity
- reduction of epileptiform activity (in words, compared with fenfluramine) ([2]; 7 dpf): not able to reduce epileptiform activity

Compound: O=C(c1ccc(F)cc1)C1CCN(CCn2c(=O)[nH]c3ccccc3c2=O)CC1 [5-HT2A-antagonist, ketaserine]
- counteraction of the fenfluramine-elicited decrease in locomotor activity, long treatment (scn1Lab−/− larvae; long treatment, p<0.05): not after a long treatment
- effect of antagonist on the fenfluramine-elicited decrease in large movements (scn1Lab−/− larvae; treatment time not stated): not seen

Compound: CC(N)Cc1c[nH]c2ccc(OCc3cccs3)cc12 (centres unmarked) [5-HT2B agonist]
- activity in the Zebrafish model of epilepsy [1]: did not show any activity

Compound: Cc1nn(C)c(C)c1-c1cccc2c1CC[C@H](N(C)C)C2 [5-HT7-agonist, (2S)-(+)-5-(1,3,5-Trimethylpyrazol-4-yl)-2-(dimethylamino)tetralin]
- locomotor-reducing activity of functional analogs [1]: locomotor-reducing activity
- activity in the Zebrafish model of epilepsy [1]: high levels of activity

Compound: NC(=O)N1c2ccccc2C=Cc2ccccc21 [carbamazepine]
- patients with worsening of symptoms (Dravet syndrome patients [3]): ~60%

Compound: O=C1Nc2ccc(Cl)cc2[C@@](C#CC2CC2)(C(F)(F)F)O1 [efavirenz, (4S)-6-chloro-4-(2-cyclopropylethynyl)-4-(trifluoromethyl)-1H-3,1-benzoxazin-2-one]
- inhibition of locomotor activity in mutant fish embryos (Example 2) ([1]; tested at MTC): potent inhibitors
- inhibition of epileptiform activity in mutant fish embryos (Example 2) ([2]; tested at MTC): potent inhibitors

Compound: CN1C[C@H](C(=O)N[C@]2(C)O[C@@]3(O)[C@@H]4CCCN4C(=O)[C@H](Cc4ccccc4)N3C2=O)C=C2c3cccc4[nH]cc(c34)C[C@H]21 [ergotamine, (6aR,9R)—N-((2R,5S,10aS,10bS)-5-benzyl-10b-hydroxy-2-methyl-3,6-dioxooctahydro-2H-oxazolo[3,2-a]pyrrolo[2,1-c]pyrazin-2-yl)-7-methyl-4,6,6a,7,8,9-hexahydroindolo[4,3-fg] quinoline-9-carboxamide]
- locomotor activity in wildtype larvae (WT scn1Lab+/+ larvae): did not decrease the locomotor activity
- locomotor-reducing activity of functional analogs [1]: interesting activity
- locomotor-reducing activity of functional analogs ([1]; listed as 5-HT5A-agonist): locomotor-reducing activity
- activity in the Zebrafish model of epilepsy [1]: high levels of activity

Compound: CCNC(C)Cc1cccc(C(F)(F)F)c1 (centres unmarked) [fenfluramine]
- activity in the Zebrafish model of epilepsy [1]: high levels of activity
- locomotor activity after long treatment ([1]; long treatment (22 h), fenfluramine 25 μM, 7 dpf, p<0.0001): lowers locomotor activity; also recorded: significantly decreased
- reduction of epileptiform activity (in words, compared with fenfluramine) ([2]; 7 dpf): anti-epileptiform activity
- frequency of epileptiform events [2, 5]: 1.7±0.4046 events/10-min recording
- mean cumulative duration of epileptiform events [2, 5]: 200.8±50.38 ms/10-min recording
- mean duration of epileptiform events [2, 5]: 85.11±18.28 ms/10-min recording
- patients seizure-free (Dravet syndrome patients [4]): 70%

Compound: Nc1nnc(-c2cccc(Cl)c2Cl)c(N)n1 [lamotrigine]
- patients with worsening of symptoms (Dravet syndrome patients [3]): up to 80%

Compound: C[C@H]1CNCCc2ccc(Cl)cc21.Cl [lorcaserin, (1R)-8-chloro-1-methyl-2,3,4,5-tetrahydro-1H-3-benzazepine]
- locomotor-reducing activity of functional analogs [1]: locomotor-reducing activity
- activity in the Zebrafish model of epilepsy [1]: high levels of activity
- reduction of epileptiform activity (in words, compared with fenfluramine) ([2]; 7 dpf): comparable effects
- affinity for the 5-HT2C receptor vs. the 5-HT2B (5-HT2C receptor): 100 ×

Compound: C=CC(N)CCC(=O)O (centres unmarked) [vigabatrin]
- patients with worsening of symptoms (Dravet syndrome patients [3]): ~60%
